# Reference: publication PMC6105804, “In Vitro and In Vivo Evaluation of APX001A/APX001 and Other Gwt1 Inhibitors against Cryptococcus” (Antimicrobial Agents and Chemotherapy, 2018)
# Where two headings read alike, the source gives them in different places.
# Columns and labels:
# [1] = tested on: C. neoformans; test: Broth microdilution susceptibility testing (CLSI M27-A3); assay type: cell-based, Cryptococcus neoformans; conditions: Cryptococcus neoformans
# Outline: (§1)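 CLSI broth microdilution (M27-A3 yeasts, M38-A2 molds), final 2 to 0.002 µg/ml, 35 °C for 40-48 h (C. albicans, A. fumigatus) or 72 h (C. neoformans). MIC for yeasts at 50% growth reduction versus DMSO control. A. fumigatus endpoint is MEC, lowest concentration shortening hyphae.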
# [2] = tested on: C. neoformans H99; test: Microtiter checkerboard synergy with FLC; assay type: cell-based, Cryptococcus neoformans; conditions: in combination with FLC, MIC read at 50% inhibition, synergy FICI < 0.5
# Description: An important consideration for developing a new treatment for CM is the potential for inclusion in combination therapy. We evaluated the synergy of APX001A and APX2020 in combination with FLC using standard microtiter dilution techniques ([33]). […] Importantly, no antagonism was observed.
# To establish the antimicrobial activity of the APX001A analogs, broth microdilution susceptibility testing was performed according to Clinical and Laboratory Standards Institute (CLSI) guidelines M27-A3 ([47]) for yeasts and M38-A2 for molds ([48]). APX001A and analogs were first diluted in DMSO to obtain intermediate dilutions. These were further diluted in microtiter plates to obtain a final concentration of 2 to 0.002 μg/ml. One microliter of DMSO was added to the no-drug control wells. The solutions were mixed on a plate shaker for 10 min, and the plates were incubated at 35°C for 40 to 48 h (C. albicans, A. fumigatus) and 72 h (C. neoformans). The minimum concentration that led to a 50% reduction in fungal growth compared to that for the control (determined with the aid of a reading mirror) was determined as the MIC for C. albicans and C. neoformans. The minimum concentration that led to the shortening of hyphae compared to the hyphal growth in DMSO control wells was determined as the minimum effective concentration (MEC) for A. fumigatus (as read for the echinocandins). […]
# [3] = tested on: C. gattii; test: Broth microdilution susceptibility testing (CLSI M27-A3); assay type: cell-based; conditions: Cryptococcus gattii
# Outline: as §1
# [4] = tested on: C. albicans 90028; test: as above; assay type: cell-based, Candida albicans; conditions: Candida albicans, 90028; read-out: MIC, C. albicans 90028
# Outline: as §1
# [5] = set-up: method as in ref 11, 12 = [11]; 11. Hodges MR , Ople E , Shaw KJ , Mansbach RS , van Marle S , van Hoogdalem E , Kramer W , Wedel P 2017 Phase 1 study to assess safety, tolerability and pharmacokinetics of single and multiple oral d || [12]; 12. Hodges MR , Ople E , Shaw KJ , Mansbach RS , van Marle S , van Hoogdalem E , Wedel P , Kramer W 2017 First-in-human study to assess safety, tolerability and pharmacokinetics of APX001 administered; conditions: phase 1 studies in healthy volunteers; cited from earlier work
# [6] = tested on: FLC-susceptible and FLC-nonsusceptible/resistant strains of C. neoformans and C. gattii; test: Broth microdilution, summary over the 18-strain Cryptococcus collection; assay type: cell-based, Cryptococcus neoformans and Cryptococcus gattii; conditions: 18 strains of C. neoformans and C. gattii; for MIC: read-out: Geometric mean MIC
# Outline: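 CLSI M27-A3 broth microdilution was run with final drug concentrations of 2 to 0.002 μg/ml from DMSO dilutions, incubated at 35°C for 72 h for C. neoformans. MIC was the lowest concentration giving 50% growth reduction versus the no-drug control, read with a mirror.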
# [7] = tested on: A. fumigatus MYA3626; test: Broth microdilution susceptibility testing for molds (CLSI M38-A2); assay type: cell-based; conditions: Aspergillus fumigatus, MYA3626; read-out: MIC or MEC for A. fumigatus MYA3626
# Outline: as §1
# [8] = tested on: strains of C. albicans; set-up: method as in ref 24 = [24]; 24. Watanabe NA , Horii T , Miyazaki M , Hata K 2011 In vitro activity of E1210 and in vivo activity of E1211, a water-soluble prodrug of E1210, in combination with other antifungals, abstr F1-1378 .; conditions: cited from earlier work
# [9] = tested on: C. neoformans; set-up: method as in PMID 23740727; conditions: 46 strains of C. neoformans, global study; cited from earlier work
# [10] = 72 h, Table 1, 50% growth inhibition for FLC, caspofungin and APX compounds, 100% for AMB, 72 h, read-out: MIC, C. neoformans H99
# [11] = C. neoformans isolate 14116, read-out: MIC
# [12] = C. neoformans isolate 76484, read-out: MIC
# [13] = C. neoformans isolate DUMC 118.00 (FLC resistant), read-out: MIC
# [14] = C. neoformans isolate DUMC 158.03 (FLC resistant), read-out: MIC
# [15] = C. neoformans isolate MYA-4564, read-out: MIC
# [16] = C. neoformans isolate MYA-4565, read-out: MIC
# [17] = C. neoformans isolate MYA-4566, read-out: MIC
# [18] = C. neoformans isolate MYA-4567, read-out: MIC
# [19] = Table 2, C. neoformans isolate H99, read-out: MIC
# [20] = C. gattii isolate MYA-4093, read-out: MIC
# [21] = C. gattii isolate MYA-4094, read-out: MIC
# [22] = C. gattii isolate MYA-4560 (first listing, r17), read-out: MIC
# [23] = C. gattii isolate MYA-4560 (second listing, r21), read-out: MIC
# [24] = C. gattii isolate MYA-4561, read-out: MIC
# [25] = C. gattii isolate MYA-4562, read-out: MIC
# [26] = C. gattii isolate MYA-4563, read-out: MIC
# [27] = C. gattii isolate MYA-4877, read-out: MIC
# [28] = C. gattii isolate RSA-MW-3615 (FLC resistant), read-out: MIC
# [29] = Table 1, 50% growth inhibition for FLC, caspofungin and APX compounds, 100% for AMB, read-out: MIC, C. gattii WM276
"MIC [1, 10]","MIC [1, 11]","MIC [1, 12]","MIC [1, 13]","MIC [1, 14]","MIC [1, 15]","MIC [1, 16]","MIC [1, 17]","MIC [1, 18]","MIC [1, 19]","MIC [3, 20]","MIC [3, 21]","MIC [3, 22]","MIC [3, 23]","MIC [3, 24]","MIC [3, 25]","MIC [3, 26]","MIC [3, 27]","MIC [3, 28]","MIC [3, 29]",SMILES,also measured
0.25 µg/mL,0.125 µg/mL,0.125 µg/mL,0.25 µg/mL,0.25 µg/mL,0.125 µg/mL,0.5 µg/mL,0.25 µg/mL,0.25 µg/mL,0.125 µg/mL,0.5 µg/mL,0.25 µg/mL,0.25 µg/mL,0.25 µg/mL,0.5 µg/mL,0.25 µg/mL,0.5 µg/mL,0.25 µg/mL,0.125 µg/mL,0.125 µg/mL,Nc1ncccc1-c1cc(Cc2ccc(COc3ccccn3)cc2)no1 [APX001A],fractional inhibitory concentration index (FICI) [2]: 0.37; MIC [4]: 0.008 µg/mL; exposures in humans [5]: ≥ 200 µg·h/mL; half-life in humans [5]: 2.5 days; MIC90 [6]: 0.5 µg/mL; MIC [6]: 0.241 µg/mL; MIC [7]: 0.016 µg/mL; strains with synergy with FLC [8]: 2 of 20
2 µg/mL,4 µg/mL,4 µg/mL,64 µg/mL,32 µg/mL,4 µg/mL,1 µg/mL,2 µg/mL,1 µg/mL,1 µg/mL,2 µg/mL,2 µg/mL,1 µg/mL,1 µg/mL,4 µg/mL,2 µg/mL,4 µg/mL,4 µg/mL,64 µg/mL,1 µg/mL,"OC(Cn1cncn1)(Cn1cncn1)c1ccc(F)cc1F [FLC, fluconazole, reference compound]",MIC [4]: 0.5 µg/mL; MIC90 [6]: 64 µg/mL; MIC [6]: 3.56 µg/mL; MIC90 [9]: 4 µg/mL; MIC [7]: > 16 µg/mL
